The subject of experiment [1] is BSA. The experiment is described as follows: ELISA seroconversion to BSA in CF-1 mice, BSA/adjuvant stability at 12 months (Example 8). In kind it is in vivo. Conditions: 12 Month; for Geometric Mean (ELISA to BSA): adjuvants at 4X, > 20 considered positive. (In general: In an ELISA, binding on a coated surface is turned into a signal by an enzyme label.)
Experiment [2] relates to BSA. The experiment is described as follows: ELISA seroconversion to BSA in mice, BSA/adjuvant stability, time 0 and 6 months (Example 4). In kind it is in vivo. Conditions: for Normalized: Day 28/29, Table 18 (to BSA only GMT of the same storage temperature); for Geometric Means: Time point 6 Months.
[3] abbreviates: Day 13, mice SC 50 ug BSA/0.1 mL.
The mark [4] stands for this setting: Day 28/29, mice SC 50 ug BSA/0.1 mL days 0 and 14.
[5] abbreviates: 6 Month, Day 28/29, S = stored stability sample, F = fresh, storage in the label.
[6] abbreviates: Time 0, Day 32, mice SC 50 ug BSA/0.1 mL on days 0 and 14, value of 10 used for no seroconversion.

S-BSA/RT: the figures for the Incidence with BSA [1] (Day 13) and in the experiment with BSA [1] (Day 28/29) were 5/10 and 7/10, respectively. Besides, the figures for the “Geometric Mean (ELISA to BSA)” value in the experiment with BSA [1] (setting [3]), in the experiment with BSA [1] (setting [4]) and in the experiment on BSA [2] (setting [5]) were 25, 184 and 243, respectively. Further, the “Incidence (# Mice Seroconverted/# Mice Treated)” value with BSA [2] (6 Month, Day 28/29) is given as 8/10. In the experiment on BSA [2] (6 Month), the Normalized was 1.
For the substance F-BSA, the Incidence in the experiment with BSA [1] (Day 13) was 5/9; in the experiment with BSA [1] (Day 28/29), 7/10. In addition, the “Geometric Mean (ELISA to BSA)” value is recorded as 20 with BSA [1] (setting [3]), 149 with BSA [1] (setting [4]) and 98 in the experiment with BSA [2] (setting [5]). For the same substance, in the experiment with BSA [2] (6 Month, Day 28/29), the “Incidence (# Mice Seroconverted/# Mice Treated)” value was 6/10.
With BSA/PBS, the “Incidence (# Mice Seroconverted/# Mice Treated)” value with BSA [2] (Time 0, Day 32) is 8/10. For the same substance, the “Geometric Mean (ELISA to BSA)” value in the experiment with BSA [2] (setting [6]) came out at 290. Also, the “Geometric Means” value was 98 with BSA [2] (Fresh), 243 in the experiment with BSA [2] (Stability Ambient - Storage (18-27° C.)) and 149 in the experiment with BSA [2] (Stability Cold - Storage (2-7° C.)).
For S-BSA/2-7° C., the Incidence with BSA [1] (Day 13) was 2/9; with BSA [1] (Day 28/29), 5/10. Also, the “Geometric Mean (ELISA to BSA)” value with BSA [1] (setting [3]) is listed as 15; with BSA [1] (setting [4]), 86; in the experiment on BSA [2] (setting [5]), 149; in the experiment on BSA [2] (setting [6]), 290. Moreover, the “Incidence (# Mice Seroconverted/# Mice Treated)” value is recorded as 8/10 in the experiment on BSA [2] (6 Month, Day 28/29) and 8/10 in the experiment with BSA [2] (Time 0, Day 32). The Normalized in the experiment with BSA [2] (6 Month) is on record as 1. In the experiment with BSA [2] (Time 0, Day 32), the “Normalized (Geomean BSA/Adj06 ÷ Geomean BSA/PBS)” value is 1.

The record behind these values is patent US10265395B2, “Adjuvant compositions and related methods” (priority 2015, dated 2019).
